Source: ChEMBL document CHEMBL1149404, “Design and synthesis of substituted phenylpropanoic acid derivatives as human peroxisome proliferator-activated receptor alpha/delta dual agonists” (Bioorg Med Chem Lett, 2006)

Assays:
[1] = target: T1, Peroxisome proliferator-activated receptor alpha (Homo sapiens, UniProt Q07869); assay: Agonist activity at PPARalpha transfected in HEK293 cells; type: functional, cell-based
T1 sequence (Q07869 whole entry): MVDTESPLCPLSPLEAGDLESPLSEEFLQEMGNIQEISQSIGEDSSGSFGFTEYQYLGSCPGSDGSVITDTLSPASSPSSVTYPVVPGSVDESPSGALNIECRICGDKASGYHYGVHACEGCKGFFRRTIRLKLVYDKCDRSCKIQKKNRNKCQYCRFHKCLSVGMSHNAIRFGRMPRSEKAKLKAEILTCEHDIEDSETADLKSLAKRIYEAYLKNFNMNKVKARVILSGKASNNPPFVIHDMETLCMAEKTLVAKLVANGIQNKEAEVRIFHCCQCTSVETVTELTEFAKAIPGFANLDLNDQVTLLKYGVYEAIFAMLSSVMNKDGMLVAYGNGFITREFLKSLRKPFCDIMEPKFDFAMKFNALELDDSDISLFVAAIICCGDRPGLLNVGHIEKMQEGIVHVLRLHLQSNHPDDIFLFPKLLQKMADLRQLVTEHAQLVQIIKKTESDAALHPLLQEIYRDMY

[2] = target: T2, Peroxisome proliferator-activated receptor delta (Homo sapiens, UniProt Q03181); assay: Agonist activity at PPARdelta transfected in HEK293 cells; type: functional, cell-based
T2 sequence (Q03181 whole entry): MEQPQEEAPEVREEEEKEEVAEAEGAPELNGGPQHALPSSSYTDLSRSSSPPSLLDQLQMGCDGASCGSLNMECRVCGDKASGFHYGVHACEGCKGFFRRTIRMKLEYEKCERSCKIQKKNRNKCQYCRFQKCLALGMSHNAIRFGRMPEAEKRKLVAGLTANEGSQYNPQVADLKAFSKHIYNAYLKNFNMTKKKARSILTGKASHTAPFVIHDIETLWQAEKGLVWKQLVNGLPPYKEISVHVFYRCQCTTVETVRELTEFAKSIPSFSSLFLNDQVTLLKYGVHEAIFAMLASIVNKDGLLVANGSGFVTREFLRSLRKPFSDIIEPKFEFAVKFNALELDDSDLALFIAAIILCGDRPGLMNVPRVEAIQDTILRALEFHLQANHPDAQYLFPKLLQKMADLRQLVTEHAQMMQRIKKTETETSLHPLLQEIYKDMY

[3] = target: T3, Peroxisome proliferator-activated receptor gamma (Homo sapiens, UniProt P37231); assay: Agonist activity at PPARgamma transfected in HEK293 cells; type: functional, cell-based
T3 sequence (P37231 whole entry): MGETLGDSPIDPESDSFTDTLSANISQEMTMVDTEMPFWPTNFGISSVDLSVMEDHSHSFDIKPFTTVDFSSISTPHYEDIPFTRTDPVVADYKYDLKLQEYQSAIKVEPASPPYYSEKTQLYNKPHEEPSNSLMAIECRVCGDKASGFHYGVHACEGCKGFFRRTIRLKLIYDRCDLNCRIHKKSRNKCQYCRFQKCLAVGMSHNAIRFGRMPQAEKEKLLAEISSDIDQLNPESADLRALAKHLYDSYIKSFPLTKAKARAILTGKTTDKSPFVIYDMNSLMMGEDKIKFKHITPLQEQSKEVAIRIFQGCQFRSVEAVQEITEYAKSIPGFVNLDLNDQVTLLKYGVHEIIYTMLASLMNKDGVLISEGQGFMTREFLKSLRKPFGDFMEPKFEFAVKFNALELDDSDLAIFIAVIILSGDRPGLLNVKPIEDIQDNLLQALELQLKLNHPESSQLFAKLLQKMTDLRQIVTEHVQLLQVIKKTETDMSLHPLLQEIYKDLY

[4] = target: T2, Peroxisome proliferator-activated receptor delta; assay: Agonist activity at PPARdelta transfected in HEK293 cells at 1 uM; type: functional, cell-based
[5] = target: T3, Peroxisome proliferator-activated receptor gamma; assay: Agonist activity at PPARgamma transfected in HEK293 cells at 1 uM; type: functional, cell-based
[6] = target: T1, Peroxisome proliferator-activated receptor alpha; assay: Agonist activity at PPARalpha transfected in HEK293 cells at 1 uM; type: functional, cell-based
[7] = target: Peroxisome proliferator-activated receptor alpha (Homo sapiens, UniProt Q07869, I272F); assay: Agonist activity at human PPARalpha containing mutant I272F domain transfected in HEK293 cells
[8] = target: T4, Peroxisome proliferator-activated receptor delta (Mus musculus, UniProt P35396); assay: Agonist activity at mouse PPARdelta transfected in HEK293 cells; type: functional, cell-based
T4 sequence (P35396 whole entry): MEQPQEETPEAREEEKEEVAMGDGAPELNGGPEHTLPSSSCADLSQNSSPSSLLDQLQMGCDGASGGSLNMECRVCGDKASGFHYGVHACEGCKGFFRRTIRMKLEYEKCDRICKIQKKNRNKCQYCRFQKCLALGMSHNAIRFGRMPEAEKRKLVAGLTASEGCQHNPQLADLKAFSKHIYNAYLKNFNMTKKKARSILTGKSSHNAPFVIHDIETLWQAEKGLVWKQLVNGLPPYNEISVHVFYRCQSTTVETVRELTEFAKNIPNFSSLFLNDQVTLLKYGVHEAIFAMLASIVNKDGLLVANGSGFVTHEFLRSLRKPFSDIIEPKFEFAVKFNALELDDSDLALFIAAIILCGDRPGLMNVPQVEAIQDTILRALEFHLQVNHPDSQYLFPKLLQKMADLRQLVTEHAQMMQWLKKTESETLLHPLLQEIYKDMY

[9] = target: T5, Peroxisome proliferator-activated receptor alpha (Mus musculus, UniProt P23204); assay: Agonist activity at mouse PPARalpha transfected in HEK293 cells; type: functional, cell-based
T5 sequence (P23204 whole entry): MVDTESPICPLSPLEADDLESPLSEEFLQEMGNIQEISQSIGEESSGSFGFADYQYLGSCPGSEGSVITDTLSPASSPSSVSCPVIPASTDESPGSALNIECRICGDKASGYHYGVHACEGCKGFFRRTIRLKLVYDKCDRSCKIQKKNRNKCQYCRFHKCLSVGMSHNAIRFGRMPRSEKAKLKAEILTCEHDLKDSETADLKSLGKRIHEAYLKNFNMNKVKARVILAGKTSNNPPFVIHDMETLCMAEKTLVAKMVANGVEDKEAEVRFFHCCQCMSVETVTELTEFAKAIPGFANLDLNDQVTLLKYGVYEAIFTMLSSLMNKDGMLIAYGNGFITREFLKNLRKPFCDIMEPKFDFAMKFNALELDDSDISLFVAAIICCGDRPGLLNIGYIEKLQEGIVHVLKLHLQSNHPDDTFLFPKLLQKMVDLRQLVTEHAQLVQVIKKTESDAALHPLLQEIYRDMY

Peroxisome proliferator-activated receptor alpha (Homo sapiens, UniProt Q07869, I272F), sequence (Q07869 whole entry I272F, the tested form may be a part): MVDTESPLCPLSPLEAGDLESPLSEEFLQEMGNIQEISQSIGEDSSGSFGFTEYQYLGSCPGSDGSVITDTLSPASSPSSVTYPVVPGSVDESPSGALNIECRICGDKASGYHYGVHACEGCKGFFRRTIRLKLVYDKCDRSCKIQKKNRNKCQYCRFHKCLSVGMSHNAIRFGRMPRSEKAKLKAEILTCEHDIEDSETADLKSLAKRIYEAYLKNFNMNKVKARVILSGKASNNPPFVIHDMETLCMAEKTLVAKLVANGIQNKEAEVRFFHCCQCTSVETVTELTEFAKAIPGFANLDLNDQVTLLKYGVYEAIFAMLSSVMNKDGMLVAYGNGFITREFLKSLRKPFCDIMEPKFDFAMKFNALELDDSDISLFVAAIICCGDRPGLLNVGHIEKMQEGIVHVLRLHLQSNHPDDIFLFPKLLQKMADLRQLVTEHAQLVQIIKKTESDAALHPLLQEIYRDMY

SMILES | EC50 [1] | EC50 [2] | EC50 [3] | other results
CCC(Cc1ccc(OC)c(C(=O)NCc2ccc(C(F)(F)F)cc2F)c1)C(=O)O (stereo not drawn) | 20 nM | 1000 nM | 500 nM | 
CC[C@H](Cc1ccc(OC)c(CNC(=O)c2ccc(C(F)(F)F)c(F)c2)c1)C(=O)O | 180 nM | 700 nM | > 10000 nM | 
CCC(Cc1ccc(OC)c(C(=O)NCc2ccc(C(F)(F)F)c(F)c2)c1)C(=O)O (stereo not drawn) | 25 nM | 500 nM | 1600 nM | 
CCC(Cc1ccc(OC)c(C(=O)NCc2ccc(C(F)(F)F)cc2)c1)C(=O)O (racemic) | 70 nM | 700 nM |  | 
CCC(Cc1ccc(OC)c(CNC(=O)c2ccc(C(F)(F)F)cc2)c1)C(=O)O (stereo not drawn) | 10 nM | 130 nM | 2000 nM | 
CCC(Cc1ccc(OC)c(CNC(=O)c2ccc(F)c(C(F)(F)F)c2)c1)C(=O)O (stereo not drawn) |  |  | > 10000 nM | 
CCC(Cc1ccc(F)c(C(=O)NCc2ccc(C(F)(F)F)cc2)c1)C(=O)O (stereo not drawn) |  |  |  | EC50 [4]: Not Active; EC50 [5]: Not Active; EC50 [6]: Not Active
CC[C@@H](Cc1ccc(OC)c(CNC(=O)c2ccc(C(F)(F)F)c(F)c2)c1)C(=O)O | 10 nM | 40 nM |  | EC50 [7]: 630 nM; EC50 [8]: 130 nM; EC50 [9]: 1000 nM
